Results reported in patent US20070265164A1, “Active Substances for Increasing Pathogenic Defense in Plants and Methods for the Detection Thereof” (Bayer Cropscience GmbH, priority 2004, published 2007).

Tests used:
Type in all cases: in vivo
Set-up in all cases: fold induction: dose or concentration left out as unconfirmed
[1] = tested on: Contig6611_at, Similar to lipases; assay: GEP, barley DNA chip, probe set 1.12; conditions: Hordeum vulgare, topical; barley leaves 6 h after spray application; rates of Table 1 (S7 500); median induction factor vs control; read-out: Expression value, 1.12 Contig6611_at
Experimental: (§1) Barley plants (cv. Baronesse) were grown in compost-filled pots (diameter: 10 cm) for 10 days in a controlled-environment cabinet under defined light, humidity and temperature conditions (white light, 70% atmospheric humidity, 24° C.). At the time of spray application, the seedlings were approximately 15 cm in size. The test substances selected in this example were molecules which differ markedly in their structure and which have a well documented pronounced safener effect, and other molecules which are known from the literature to have an effect on plant stress and pathogen tolerance (Table 1). The substances were prepared as stock solutions in DMSO (dimethyl sulfoxide) at c=10 mg/ml). This was used for preparing dilutions in water supplemented with 0.2% Agrotin (comprises polyvinyl alcohol, silicones, polysaccharides and pH regulators, manufacturer: Bayer CropScience AG, Monheim, Germany), as wetter, to give the application rates shown in the table. The amount of liquid for the spray application was 800 μl per pot, corresponding to 800 l/ha. For each 800 μl of spray mixture, 16 μl of EC premix: diacetone alcohol=1:6 were additionally added as formulation auxiliaries. The substances listed in Table 1 were applied to the leaves by means of a pneumatic spray pistol. Each substance was sprayed as 2 dosages, and all experiments were carried out as replicates (2 pots per substance). Sprayings with blank formulation without active ingredient were carried out as controls. After 6 hours, the leaves were harvested, frozen in liquid nitrogen and stored at −80° C. until further use. The labeled RNA probes for the DNA chip hybridization were prepared as described in the protocols (Expression Analysis, Technical Manual) from Affymetrix (Affymetrix Inc., 3380 Central Expressway, Santa Clara, Calif., USA). First, total RNA was isolated from in each case 500 mg of the harvested leaves. In each case 10 μg of total RNA was used for the first-strand and second-strand cDNA synthesis. The cDNA was amplified with T7 polymerase and simultaneously labeled with biotin-UTP. In each case, 20 μg of this biotinylated cDNA was employed for the hybridization of the barley genome array (Gene Chip Barleyl, order No.: 511012) from Affymetrix. This DNA microarray comprises DNA sequences of 22 840 genes which are composed of a total of 400 000 EST sequences. Thereafter, the DNA microarrays were washed in the Affymetrix Fluidics Station, stained with streptavidin/phycoerythrin (Molecular Probes, P/N S-866) and scanned with the matching Agilent Laser Scanner (Agilent Gene Array Scanner). The fluorescent data obtained were analyzed with the software Microarray Suite 5 from Affymetrix. After the quality had been checked, all DNA chip analyses were stored in a database. To determine the relative expression values for genes (induction factors, repression factors), test and control chips were compared with each other, and the scoring function set by the Affymetrix software was used as the basis. The 2 biological replications of one experiment were compared in each case with 2 control chips (blank formulation), and the 4 expression values obtained for each gene were used for calculating the median. These medians are shown in the results tables as induction factors. Similarity comparisons of expression profiles from different experiments and cluster analyses were carried out using the software GeneMaths 1.5 from Applied Maths (Applied Maths, Keistraat 120, 9830 Sint-Martens-Latem, Belgium).
(§2) Gene groups from specific metabolic pathways and signal transduction chains were put together by key word search in the annotations, of the genes, which were also provided by Affymetrix, and by Blast analyses (homology comparisons) of the DNA target sequences, i.e. of the positive sequence (identified on the basis of a modified expression profile) identified on the DNA chip, using gene sequences from other organisms, preferably plant organisms, with characterized functions. […]

[2] = tested on: Contig5146_at, Probable 12-oxophytodienoate reductase (EC 1.3.1.42); assay: GEP, barley DNA chip, probe set 1.4; conditions: Hordeum vulgare, topical; barley leaves 6 h after spray application; rates of Table 1 (S7 500); median induction factor vs control; read-out: Expression value, 1.4 Contig5146_at
Experimental: as §1, §2

[3] = tested on: Contig6194_a_at, 12-oxophytodienoic acid reductase; assay: GEP, barley DNA chip, probe set 1.7; conditions: Hordeum vulgare, topical; barley leaves 6 h after spray application; rates of Table 1 (S7 500); median induction factor vs control; read-out: Expression value, 1.7 Contig6194_a_at
Experimental: as §1, §2

[4] = tested on: Contig2118_at, Peroxidase (EC 1.11.1.7), pathogen-induced; assay: GEP, barley DNA chip, probe set 4.1; conditions: Hordeum vulgare, topical; barley leaves 6 h after spray application; rates of Table 1 (S7 500); median induction factor vs control; read-out: Expression value, 4.1 Contig2118_at
Experimental: as §1, §2

[5] = tested on: Contig 4986_at, Allene oxide cyclase; assay: GEP, barley DNA chip, probe set 1.5; conditions: Hordeum vulgare, topical; barley leaves 6 h after spray application; rates of Table 1 (S7 500); median induction factor vs control; read-out: Expression value, 1.5 Contig 4986_at
Experimental: as §1, §2

[6] = tested on: Contig2088_s_at, Bowman-Birk type trypsin inhibitor; assay: GEP, barley DNA chip, probe set 2.1; conditions: Hordeum vulgare, topical; barley leaves 6 h after spray application; rates of Table 1 (S7 500); median induction factor vs control; read-out: Expression value, 2.1 Contig2088_s_at
Experimental: as §1, §2

[7] = tested on: Contig5023_at, Class III chitinase; assay: GEP, barley DNA chip, probe set 5.3; conditions: Hordeum vulgare, topical; barley leaves 6 h after spray application; rates of Table 1 (S7 500); median induction factor vs control; read-out: Expression value, 5.3 Contig5023_at
Experimental: as §1, §2

[8] = tested on: HV_Ceb0020D05r2_s_at, Allene oxide cyclase; assay: GEP, barley DNA chip, probe set 1.6; conditions: Hordeum vulgare, topical; barley leaves 6 h after spray application; rates of Table 1 (S7 500); median induction factor vs control; read-out: Expression value, 1.6 HV_Ceb0020 D05r2_s_at
Experimental: as §1, §2

[9] = tested on: Contig5607_s_at, Pathogen-related protein (PirT06168); assay: GEP, barley DNA chip, probe set 4.3; conditions: Hordeum vulgare, topical; barley leaves 6 h after spray application; rates of Table 1 (S7 500); median induction factor vs control; read-out: Expression value, 4.3 Contig5607_s_at
Experimental: as §1, §2

[10] = tested on: Contig13413_at, Similar to lipases; assay: GEP, barley DNA chip, probe set 1.17; conditions: Hordeum vulgare, topical; barley leaves 6 h after spray application; rates of Table 1 (S7 500); median induction factor vs control; read-out: Expression value, 1.17 Contig13413_at
Experimental: as §1, §2

[11] = tested on: HD07M22r_s_at, Proteinase-Inhibitor (pir S71555, barley); assay: GEP, barley DNA chip, probe set 2.4; conditions: Hordeum vulgare, topical; barley leaves 6 h after spray application; rates of Table 1 (S7 500); median induction factor vs control; read-out: Expression value, 2.4 HD07M22r_s_at
Experimental: as §1, §2

[12] = tested on: Contig8905_at, Xytanase inhibitor protein; assay: GEP, barley DNA chip, probe set 3.1; conditions: Hordeum vulgare, topical; barley leaves 6 h after spray application; rates of Table 1 (S7 500); median induction factor vs control; read-out: Expression value, 3.1 Contig8905_at
Experimental: as §1, §2

## CCCCCC(C)OC(=O)COc1ccc(Cl)c2cccnc12 (stereo not drawn) [S4, Cloquintocet-mexyl]
[1]
  fold induction: 1
[2]
  fold induction: 4.72
[3]
  fold induction: 2.17
[4]
  fold induction: 1
[5]
  fold induction: 1
[6]
  fold induction: 1
[7]
  fold induction: 1
[8]
  fold induction: 1
[9]
  fold induction: 18.4
[10]
  fold induction: 1
[11]
  fold induction: 1
[12]
  fold induction: 2.73
